Assay type in all cases: functional
Test [1] deals with Escherichia coli. Nature of the test: Minimum bacterial concentration (MBC) against Escherichia coli.
Test [2] has as its system Pseudomonas aeruginosa. Nature of the test: Minimum inhibitory concentration (MIC) against Pseudomonas aeruginosa.
The subject of test [3] is Escherichia coli. Description: Minimum inhibitory concentration (MIC) against Escherichia coli.
For test [4], the system named is Staphylococcus aureus. Description: Minimum bacterial concentration (MBC) against Staphylococcus aureus.
The subject of test [5] is Pseudomonas aeruginosa. Nature of the test: Minimum bacterial concentration (MBC) against Pseudomonas aeruginosa.
Test [6] deals with Staphylococcus aureus. Description: Minimum inhibitory concentration (MIC) against Staphylococcus aureus.

Values after ≈ are worked out from the molar mass of the structure shown.

A word on the MBC: it is the smallest concentration meeting the test's criterion for killing. Read a high MBC as less potent killing. In general, MIC refers to the lowest concentration found to suppress growth. A high value points to a need for much substance.

In the case of `CCn1ccnc1`, the results for the MBC in test [1], in test [4] and in test [5] were 960 µg/mL (≈ 9990 µM), 960 µg/mL (≈ 9990 µM) and 1920 µg/mL (≈ 20000 µM), respectively. The MIC in test [2] came out at 960 µg/mL (≈ 9990 µM); in test [3] it was 480 µg/mL (≈ 4990 µM); in test [6], 480 µg/mL (≈ 4990 µM).
On to `CCCCn1ccnc1`, for which the results for the MBC in test [1], in test [4] and in test [5] were 198 µg/mL (≈ 1590 µM), 174 µg/mL (≈ 1400 µM) and 496 µg/mL (≈ 3990 µM), respectively. Moreover, the values for the MIC in test [2], in test [3] and in test [6] were 248 µg/mL (≈ 2000 µM), 99 µg/mL (≈ 797 µM) and 87 µg/mL (≈ 701 µM), respectively.
On to `CCCCCn1ccnc1`, for which the MBC was 193 µg/mL (≈ 1400 µM) in test [1], 138 µg/mL (≈ 998 µM) in test [4] and 276 µg/mL (≈ 2000 µM) in test [5]. The MIC is 138 µg/mL (≈ 998 µM) in test [2], 97 µg/mL (≈ 702 µM) in test [3] and 69 µg/mL (≈ 499 µM) in test [6].
Regarding `CCCCCCCCCCCCn1ccnc1`, the results for the MBC in test [1], in test [4] and in test [5] were 15300 µg/mL (≈ 64900 µM), 15300 µg/mL (≈ 64900 µM) and 17700 µg/mL (≈ 74900 µM), respectively. Further, the MIC worked out at 16500 µg/mL (≈ 69900 µM) in test [2], 14200 µg/mL (≈ 59900 µM) in test [3] and 14200 µg/mL (≈ 59900 µM) in test [6].
In the case of `CCCCCCCCn1cc([N+](=O)[O-])nc1C`, the results for the MBC in test [1] and in test [4] were 60 µg/mL (≈ 251 µM) and 48 µg/mL (≈ 201 µM), respectively. In addition, the values for the MIC in test [3] and in test [6] were 31 µg/mL (≈ 130 µM) and 24 µg/mL (≈ 100 µM), respectively.
On the same counts, the results for `CCCCCCn1ccnc1C` are 50 µg/mL (≈ 301 µM), 50 µg/mL (≈ 301 µM), 25 µg/mL (≈ 150 µM) and 25 µg/mL (≈ 150 µM).
`CCCCCCCCCn1ccnc1`: the results for the minimum bactericidal concentration (MBC) in test [1], in test [4] and in test [5] were 39 µg/mL (≈ 201 µM), 19 µg/mL (≈ 97.8 µM) and 78 µg/mL (≈ 401 µM), respectively. In addition, the MIC in test [2] stood at 39 µg/mL (≈ 201 µM); in test [3], 19 µg/mL (≈ 97.8 µM); in test [6], 10 µg/mL (≈ 51.5 µM).
Regarding `CCCCCCCCn1ccnc1`, the figures for the MBC in test [1], in test [4] and in test [5] were 90 µg/mL (≈ 499 µM), 45 µg/mL (≈ 250 µM) and 108 µg/mL (≈ 599 µM), respectively. Also, the MIC in test [2] came out at 54 µg/mL (≈ 300 µM); in test [3], 45 µg/mL (≈ 250 µM); in test [6], 27 µg/mL (≈ 150 µM).
As to `CCCCCCCCCCCCCCn1ccnc1`, the MBC stood at 22400 µg/mL (≈ 84900 µM) in test [1], 21100 µg/mL (≈ 79900 µM) in test [4] and 25100 µg/mL (≈ 94800 µM) in test [5]. The minimum inhibitory concentration (MIC) in test [2] is 23800 µg/mL (≈ 89800 µM); in test [3], 21100 µg/mL (≈ 79900 µM); in test [6], 19800 µg/mL (≈ 74900 µM).
As for `CCCCn1cc([N+](=O)[O-])nc1C`, the MBC in test [1] came to 37 µg/mL (≈ 202 µM); in test [4], 33 µg/mL (≈ 180 µM). In addition, the MIC in test [3] amounted to 18 µg/mL (≈ 98.2 µM); in test [6] it was 17 µg/mL (≈ 92.8 µM).
For `CCCCCCCCCCCCn1ccnc1C` the same measures were 18800 µg/mL (≈ 74900 µM), 18800 µg/mL (≈ 74900 µM), 17500 µg/mL (≈ 69900 µM) and 17500 µg/mL (≈ 69900 µM).
As to `CCCn1ccnc1`, the MBC in test [1] amounted to 220 µg/mL (≈ 2000 µM); in test [4], 198 µg/mL (≈ 1800 µM); in test [5], 1100 µg/mL (≈ 9990 µM). The figures for the MIC in test [2], in test [3] and in test [6] were 550 µg/mL (≈ 4990 µM), 110 µg/mL (≈ 999 µM) and 44 µg/mL (≈ 399 µM), respectively.
As for `CCCCCCCn1ccnc1`, the MBC in test [1] was found to be 100 µg/mL (≈ 601 µM); in test [4], 66 µg/mL (≈ 397 µM); in test [5], 166 µg/mL (≈ 998 µM). Moreover, the values for the MIC in test [2], in test [3] and in test [6] were 83 µg/mL (≈ 499 µM), 50 µg/mL (≈ 301 µM) and 33 µg/mL (≈ 198 µM), respectively.
As for `CCCCCCCCCCn1ccnc1`, the MBC came out at 416 µg/mL (≈ 2000 µM) in test [1], 416 µg/mL (≈ 2000 µM) in test [4] and 832 µg/mL (≈ 3990 µM) in test [5]. The MIC in test [2] was 416 µg/mL (≈ 2000 µM); in test [3] it was 208 µg/mL (≈ 998 µM); in test [6] it was 208 µg/mL (≈ 998 µM).
For `CCCCCCn1ccnc1`, the MBC in test [1] is 182 µg/mL (≈ 1200 µM); in test [4], 91 µg/mL (≈ 598 µM); in test [5], 243 µg/mL (≈ 1600 µM). In addition, the MIC amounted to 122 µg/mL (≈ 801 µM) in test [2], 91 µg/mL (≈ 598 µM) in test [3] and 46 µg/mL (≈ 302 µM) in test [6].
On to `CCCCCCCCCCCCCn1ccnc1`, for which the MBC was 20000 µg/mL (≈ 79900 µM) in test [1], 18800 µg/mL (≈ 74900 µM) in test [4] and 21200 µg/mL (≈ 84900 µM) in test [5]. For the same compound, the MIC in test [2] came out at 20000 µg/mL (≈ 79900 µM); in test [3], 18800 µg/mL (≈ 74900 µM); in test [6], 17500 µg/mL (≈ 69900 µM).
On to GENTAMICIN, for which the MBC stood at 128 µg/mL in test [1], 4 µg/mL in test [4] and 12 µg/mL in test [5]. Also, the minimal inhibitory concentration (MIC) in test [2] was 8 µg/mL; in test [3], 64 µg/mL; in test [6], 2 µg/mL.
In the case of `CCCCCCCCCCCn1ccnc1`, the MBC in test [1] worked out at 2220 µg/mL (≈ 9980 µM); in test [4], 2220 µg/mL (≈ 9980 µM); in test [5], 4440 µg/mL (≈ 20000 µM). Also, the MIC turned out to be 2220 µg/mL (≈ 9980 µM) in test [2], 1110 µg/mL (≈ 4990 µM) in test [3] and 1110 µg/mL (≈ 4990 µM) in test [6].
